“And” between values parts separate entries of the source, which are not always exact repeats. Identical values can stand only once.
Columns and labels:
Type in all cases: in vivo, human
[1] = system: PMC from schizophrenic patients; assay: Real-time RT-PCR of GABAAβ2 and PKCβ2 mRNAs in PMC (8 patients)
Experimental: FIGS. 2A-2B show real-time RT-PCR analysis of GABAAβ2 (2A) and PKCβ2 (2B) mRNAs in PMCs from schizophrenic patients treated with an antipsychotic drug combined with the antidepressant agent fluvoxamine. Fluvoxamine (100 mg/day) was added in an open study format to the constant antipsychotic treatment of 8 patients suffering from chronic schizophrenia with persistent negative symptoms. Total RNA, isolated from PMCs of these patients at baseline (day 0, BL) as well as following 1, 3 and 6 weeks (1W, 3W and 6W, respectively) of the combined treatment, was reverse transcribed. cDNA was amplified in real-time PCR using suitable primers for GABAAβ2 and PKCβ2, as described in the Experimental section. The relative expression level of a given mRNA was assessed by normalizing to the reference gene PPIB. For each patient, the expression level of each one of the genes at baseline was arbitrarily set as 1, and the gene expression levels at 3 and 6 weeks were calculated relative to baseline. Lines connecting points indicate samples of the same patient. Dash line indicates average of the samples of different objects. Student's t-test *p<0.05; **p<0.01 for 1, 3 or 6 weeks of fluvoxamine add-on compared with baseline.
Two μg of total RNA were denatured and reverse transcribed using random hexanucleotides (0.5 μg/μl) as previously described (Chertkow et al., 2006). Real-time quantitative assessment was performed using LightCycler with FastStart DNA Master SYBR Green I ready-to use PCR mix kits according to the manufacture's protocol (Roche Diagnostics, Mannheim, Germany). Forty ng cDNA was amplified per sample. Each experimental set included one reaction with water as template to control for cross contamination. […] The results were analyzed in real-time on the provided program of the LightCycler and normalized against a reference gene in order to correct sample-to-sample variation. […] Expression stability of these genes was determined in our samples with ‘Normfinder’ Excel applet (Andersen et al., 2004); PPIB was chosen as the reference gene for normalization. […]

schizophrenic patients [2] = assay: Clinical rating scales for negative (SANS) and positive (SAPS) symptoms; conditions: for SANS total / SAPS total / Affective blunting score / Alogia score / Anhedonia score / Avolition score: one line per patient I-VI
Experimental: Patients suffering from chronic schizophrenia (DSM IV criteria) with at least 2 years of illness (range 2-17 years) and persistent negative symptoms were chosen from an Israeli mental health center, as shown in Table 1. To qualify for inclusion in the study, these patients were required to be on constant antipsychotic medication for at least 6 months prior to the study and on an unchanged dose for at least 4 weeks before entry.
(§1) Fluvoxamine (100 mg/day) was added in an open study format to the antipsychotic treatment, which remained steady. Clinical state was assessed by psychiatrists using validated rating scales for negative (SANS) and positive (SAPS) symptoms (Silver et al., 2003) prior to fluvoxamine treatment and then weekly until the end of the trial period. Total SANS scores and summary scores for […] blunting, alogia, anhedonia and […] factors were the outcome measures. Extrapyramidal symptoms were assessed with the Simpson-Angus Scale (SAS) for extrapyramidal side effects (Simpson and Angus, 1970). Blood samples were taken at baseline (day 0), before addition of fluvoxamine, after 3 weeks of combined treatment, a time when the initial clinical effect is expected to be seen (Silver et al., 2003), and after 6 weeks of the combined treatment.
The biochemical data were analyzed by one way analysis of variance (ANOVA) followed by Dunnett's test. For each gene, differences between expression after 3 or 6 weeks of treatment ad baseline, were considered significant if they reached a level of significance of p<0.05. Clinical response was assessed with repeated measure ANOVA.

schizophrenic patients [3] = assay: Simpson-Angus Scale (SAS) for extrapyramidal side effects; conditions: for Extra-pyramidal side effects score: one line per patient I-VI
Experimental: as §1

[4] = after 3-6 weeks of the combined treatment

What does the source list for `COCCCC/C(=N\OCCN)c1ccc(C(F)(F)F)cc1` [fluvoxamine]?
average GABAAβ2 expression increase compared with day 0 [1, 4]: 40-50%; average PKCβ2 expression decrease compared with day 0 [1, 4]: ≥ 90%; average PKCβ2 expression decrease compared with day 0 ([1]; after one week of the combined treatment): about 30%; SANS total (schizophrenic patients [2]; 3 W of augmentation treatment): 71 and 49 and 69 and 104 and 91 and 97; SAPS total (schizophrenic patients [2]; 3 W of augmentation treatment): 9 and 7 (2×) and 12 (2×) and 11; Affective blunting score (schizophrenic patients [2]; 3 W): 23 and 26 and 19 and 9 and 18 and 27; Alogia score (schizophrenic patients [2]; 3 W): 24 and 21 and 13; Anhedonia score (schizophrenic patients [2]; 3 W): 14 (2×) and 16 and 11 (2×) and 17; Avolition score (schizophrenic patients [2]; 3 W): 16 and 18 and 11 and 8 (2×) and 19; SANS total (schizophrenic patients [2]; 6 W of augmentation treatment): 63 and 46 and 60 and 103 and 86 and 98; SAPS total (schizophrenic patients [2]; 6 W of augmentation treatment): 9 and 7 and 6 and 12 (2×) and 10; Affective blunting score (schizophrenic patients [2]; 6 W): 30 and 22 and 14; Alogia score (schizophrenic patients [2]; 6 W): 21 and 26 (2×) and 16 and 9 and 15; Anhedonia score (schizophrenic patients [2]; 6 W): 14 (2×) and 8 and 9 and 12 and 17; Avolition score (schizophrenic patients [2]; 6 W): 16 and 18 and 11 and 8 (2×) and 19; SAPS score change (schizophrenic patients [2]; following augmentation-treatment): no significant change; mean SANS total score change (schizophrenic patients [2]; following augmentation-treatment, p<0.001): significant changes; affective blunting change (schizophrenic patients [2]; following augmentation-treatment, p<0.01): significant changes; anhedonia change (schizophrenic patients [2]; following augmentation-treatment, p=0.30): trend; avolition change (schizophrenic patients [2]; following augmentation-treatment, p=0.75): trend; Extra-pyramidal side effects score (schizophrenic patients [3]; 3 W): 0 (5×) and 6; Extra-pyramidal side effects score (schizophrenic patients [3]; 6 W): 0 (5×) and 4; Extra pyramidal side effects change (schizophrenic patients [3]; with augmentation treatment, absent in all, except one patient): did not change significantly
